The record followed here is patent publication US20240294533A1, “2-(HET)ARYL-SUBSTITUTED CONDENSED HETEROCYCLE DERIVATIVES AS PEST CONTROL AGENTS” (Bayer Aktiengesellschaft, priority 2021, published 2024).

Like-named read-outs stand apart in the source and are kept apart here.

The nature of data set [1]: log P by HPLC on reversed-phase column (C18). In kind it is physicochemical. The settings on record: LC-UV. As to the method:
log P Values The log P values were determined according to EEC Directive 79/831 Annex V.A8 by HPLC (high-performance liquid chromatography) on a reversed-phase column (C18) using the following methods: ^[a] […] Calibration was carried out using straight-chain alkan-2-ones (having 3 to 16 carbon atoms) with known log P values. The values between successive alkanones are determined by linear regression.

For the next data set, the system named is Spodoptera frugiperda. The data set is described as follows: Spodoptera frugiperda spray test (maize leaf discs). The format is in vivo. The settings on record: after 7 days; for pest or weed control at 100 g/ha: Spodoptera frugiperda, foliar, 168 h, read-out: efficacy. An excerpt:
Spodoptera Frusiperda—Spray Test Solvent: 78.0 parts by weight of acetone • • 1.5 parts by weight of dimethylformamide Emulsifier: alkylaryl polyglycol ether An appropriate active ingredient formulation is produced by dissolving 1 part by weight of active ingredient with the stated parts by weight of solvent and making the solution up to the desired concentration with water containing an emulsifier concentration of 1000 ppm. Further test concentrations are produced by diluting the formulation with emulsifier-containing water. Leaf discs of maize (Zea mays) are sprayed with an active ingredient formulation of the desired concentration and, after drying, populated with caterpillars of the fall armyworm (Spodoptera frugiperda). After 7 days, efficacy in % is determined. 100% means that all the caterpillars have been killed; 0% means that no caterpillar has been killed.

The next data set has as its system Diabrotica balteata. The experiment in a line: Diabrotica balteata spray test. The format is in vivo. Conditions: wheat grains, after 7 days; for pest or weed control at 100 g/ha / pest or weed control at 125 g/ha: Diabrotica balteata, 168 h, read-out: efficacy; for pest or weed control at 125 g/ha: 125 g/ha (=40 μg/cavity). From the text: Diabrotica balteata—Spray Test Solvent: 78 parts by weight of acetone • • 1.5 parts by weight of dimethylformamide Emulsifier: alkylaryl polyglycol ether An appropriate active ingredient formulation is produced by dissolving 1 part by weight of active ingredient with the stated parts by weight of solvent and making the solution up to the desired concentration with water containing an emulsifier concentration of 1000 ppm. Further test concentrations are produced by diluting the formulation with emulsifier-containing water. Pre-swollen wheat grains (Triticum aestivum) are incubated in a multiwell plate filled with agar and a little water for one day (5 seed grains per cavity). The germinated wheat grains are sprayed with an active ingredient formulation of the desired concentration. Subsequently, each cavity is infected with 10-20 beetle larvae of Diabrotica balteata. After 7 days, efficacy in % is determined. 100% means that all wheat plants have grown as in the untreated, uninfected control; 0% means that no wheat plant has grown.

Data set [2] relates to Nezara viridula. The data set is described as follows: Nezara viridula spray test (plants sprayed, then infected). The format is in vivo. The settings on record: 500 g/ha, barley plants, after 4 days. From the text:
(§1) Nezara viridula—Spray Test Solvent: 78.0 parts by weight of acetone • • 1.5 parts by weight of dimethylformamide Emulsifier: alkylaryl polyglycol ether An appropriate active ingredient formulation is produced by dissolving 1 part by weight of active ingredient with the stated parts by weight of solvent and making the solution up to the desired concentration with water containing an emulsifier concentration of 1000 ppm. Further test concentrations are produced by diluting the formulation with emulsifier-containing water. Barley plants (Hordeum vulgare) are sprayed with an active ingredient formulation of the desired concentration and are infected with larvae of the Southern green shield bug (Nezara viridula). After 4 days, efficacy in % is determined. 100% means that all of the shield bugs have been killed; 0% means that none of the shield bugs have been killed.

The test system of the next data set is Meloidogyne incognita. The data set is described as follows: Meloidogyne incognita test. In kind it is in vivo. Conditions: lettuce, gall formation after 14 days; for pest or weed control at 20 ppm: Meloidogyne incognita, 336 h, read-out: nematicidal efficacy. An excerpt:
Meloidogyne incognita Test Solvent: 125.0 parts by weight of acetone An appropriate active ingredient formulation is produced by mixing 1 part by weight of active ingredient with the stated amount of solvent and diluting the concentrate to the desired concentration with water. Vessels are filled with sand, active ingredient solution, an egg/larvae suspension of the southern root-knot nematode (Meloidogyne incognita) and lettuce seeds. The lettuce seeds germinate and the plants develop. The galls develop on the roots. After 14 days, the nematicidal efficacy in % is determined by the formation of galls. 100% means that no galls were found; 0% means that the number of galls on the treated plants corresponds to the untreated control.

For data set [3], the system named is Nezara viridula. The experiment in a line: Nezara viridula spray test (infected barley plants sprayed). The format is in vivo. The settings on record: 100 g ai/ha, after 4 days.
From the text: as §1, with “52.5” for “78.0”, “7” for “• 1.5”, “water. If the addition of ammonium salts or/and penetrants is required, these are each added in a concentration of 1000 ppm to the formulation solution.” for “water.”, “vulgare) infected with larvae of the Southern green shield bug (Nezara viridula)” for “vulgare)”, “concentration.” for “concentration and are infected with larvae of the Southern green shield bug (Nezara viridula).”

The subject of another data set is Myzus persicae. The experiment in a line: Myzus persicae oral test. The format is in vivo. The settings on record: 4 ppm, after 5 days. As to the method: Myzus persicae—Oral Test Solvent: 100 parts by weight of acetone An appropriate active ingredient formulation is produced by dissolving 1 part by weight of active ingredient with the specified parts by weight of solvent and making the solution up to the desired concentration with water. 50 μl of the active ingredient formulation is transferred into microtitre plates and made up to a final volume of 200 μl with 150 μl of IPL41 insect medium (33%+15% sugar). Subsequently, the plates are sealed with parafilm, which a mixed population of green peach aphids (Myzus persicae) within a second microtitre plate is able to puncture and imbibe the solution. After 5 days, efficacy in % is determined. 100% means that all the aphids have been killed; 0% means that no aphids have been killed.

Where [4] appears, read: neutral range, ammonium acetate/acetonitrile, read-out: log P (neutral).

Consider `Cn1c(-c2nc(F)ccc2F)nc2cc(C(F)(F)C(F)(F)F)cnc21` [2-(3,6-Difluoro-2-pyridyl)-3-methyl-6-(1,1,2,2,2-pentafluoroethyl)imidazo[4,5-b]pyridine], for which the chromatographic logP in data set [1] (setting [4]) turned out to be 3.3.

Regarding `CCSc1ccc(F)nc1-c1nc2cc(C(F)(F)C(F)(F)F)cnc2n1C` [2-(3-Ethylsulfanyl-6-fluoro-2-pyridyl)-3-methyl-6-(1,1,2,2,2-pentafluoroethyl)imidazo[4,5-b]pyridine], the chromatographic logP in data set [1] (acidic range, formic acid/acetonitrile, read-out: log P (acidic)) was determined as 4.05.

Turning to `CCS(=O)(=O)c1ccc(F)nc1-c1nc2cc(C(F)(F)C(F)(F)F)cnc2n1C` [2-(3-Ethylsulfonyl-6-fluoro-2-pyridyl)-3-methyl-6-(1,1,2,2,2-pentafluoroethyl)imidazo[4,5-b]pyridine], in data set [1] (setting [4]), the chromatographic logP turned out to be 3.33.

As to `CCS(=O)(=O)c1ccc(-n2ncn(-c3cccc(C4(C#N)CC4)c3)c2=O)nc1-c1nc2cc(C(F)(F)C(F)(F)F)nnc2n1C` [Example I-01], the pest or weed control at 100 g/ha in the data set on Spodoptera frugiperda and with Diabrotica balteata (100 g/ha (=32 μg/cavity)) was 100% each time.

Consider `CCS(=O)(=O)c1ccc(-n2ncn(-c3cccc(C4(C#N)CC4)c3)c2=O)nc1-c1nc2cc(C(F)(F)C(F)(F)F)cnc2n1C` [Example I-04], for which the pest or weed control at 100 g/ha with Spodoptera frugiperda and in the data set on Diabrotica balteata (100 g/ha (=32 μg/cavity)) was 100% throughout. In addition, in the data set on Nezara viridula [2], the efficacy was determined as 100%.

In the case of `CCS(=O)(=O)c1ccc(-n2ncn(-c3ccc(C#N)c(Cl)c3)c2=O)nc1-c1nc2cc(C(F)(F)C(F)(F)F)nnc2n1C` [Example I-05], the pest or weed control at 100 g/ha with Spodoptera frugiperda and with Diabrotica balteata (100 g/ha (=32 μg/cavity)) was 100% throughout. Further, in the data set with Meloidogyne incognita, the pest or weed control at 20 ppm came out at 100%.

For the compound `CCS(=O)(=O)c1ccc(-n2ncn(-c3ccc(Cl)c(C#N)c3)c2=O)nc1-c1nc2cc(C(F)(F)C(F)(F)F)cnc2n1C` [Example I-07], the pest or weed control at 100 g/ha with Spodoptera frugiperda and in the data set on Diabrotica balteata (100 g/ha (=32 μg/cavity)) was 100% throughout. Also, the efficacy with Nezara viridula [2] amounted to 100%. Besides, in the data set with Meloidogyne incognita, the pest or weed control at 20 ppm worked out at 100%.

As for `CCS(=O)(=O)c1ccc(-n2ncn(-c3ccc(Cl)c(C#N)c3)c2=O)nc1-c1nc2cc(C(F)(F)C(F)(F)F)nnc2n1C` [Example I-08], the pest or weed control at 100 g/ha in the data set on Spodoptera frugiperda and with Diabrotica balteata (100 g/ha (=32 μg/cavity)) was 100% each time. Besides, in the data set on Meloidogyne incognita, the pest or weed control at 20 ppm amounted to 100%.

On to `CCS(=O)(=O)c1ccc(-n2ncn(-c3ccc(I)cc3)c2=O)nc1-c1nc2cc(C(F)(F)C(F)(F)F)nnc2n1C` [Example I-09], for which the pest or weed control at 100 g/ha in the data set with Spodoptera frugiperda and in the data set on Diabrotica balteata (100 g/ha (=32 μg/cavity)) was 100% throughout. For the same compound, the pest or weed control at 20 ppm with Meloidogyne incognita was 90%.

In the case of `CCS(=O)(=O)c1ccc(-n2ncn(-c3ccc(F)cc3)c2=O)nc1-c1nc2cc(C(F)(F)C(F)(F)F)nnc2n1C` [Example I-10], the pest or weed control at 100 g/ha in the data set with Spodoptera frugiperda and in the data set on Diabrotica balteata (100 g/ha (=32 μg/cavity)) was 100% each time. The pest or weed control at 20 ppm in the data set on Meloidogyne incognita worked out at 100%.

Turning to `CCS(=O)(=O)c1ccc(-n2ncn(-c3cccc(Br)c3)c2=O)nc1-c1nc2cc(C(F)(F)C(F)(F)F)nnc2n1C` [Example I-11], the efficacy with Spodoptera frugiperda (100 g/ha) came out at 100%; in the data set with Nezara viridula [3], 90%. In the data set on Diabrotica balteata (100 g/ha (=32 μg/cavity)), the pest or weed control at 100 g/ha amounted to 100%. In addition, the pest or weed control at 20 ppm in the data set with Meloidogyne incognita was found to be 100%.

On to `CCS(=O)(=O)c1ccc(-n2ncn(-c3cccc(Cl)c3)c2=O)nc1-c1nc2cc(C(F)(F)C(F)(F)F)nnc2n1C` [Example I-13], for which the pest or weed control at 100 g/ha in the data set on Spodoptera frugiperda and in the data set with Diabrotica balteata (100 g/ha (=32 μg/cavity)) was 100% each time. The same compound had an efficacy with Nezara viridula [3] of 100%.

Consider `CCS(=O)(=O)c1ccc(-n2ncn(-c3cccc(Br)c3)c2=O)nc1-c1nc2cc(C(F)(F)C(F)(F)F)nnc2n1C` [Example I-15], for which the pest or weed control at 100 g/ha in the data set with Spodoptera frugiperda came out at 100%. The efficacy with Nezara viridula [3] and in the data set with Diabrotica balteata (100 g/ha (=32 μg/cavity)) was 100% each time. This compound also showed a nematicidal efficacy in the data set on Meloidogyne incognita (20 ppm) of 100%.

As to `CCS(=O)(=O)c1ccc(-n2ncn(-c3cccc(F)c3)c2=O)nc1-c1nc2cc(C(F)(F)C(F)(F)F)cnc2n1C` [Example I-16], the pest or weed control at 100 g/ha in the data set on Spodoptera frugiperda and in the data set on Diabrotica balteata (100 g/ha (=32 μg/cavity)) was 100% in each case. Moreover, in the data set with Meloidogyne incognita, the pest or weed control at 20 ppm worked out at 100%.

For the compound `CCS(=O)(=O)c1ccc(-n2ncn(-c3ccc(C#N)c(Cl)c3)c2=O)nc1-c1nc2cc(C(F)(F)C(F)(F)F)cnc2n1C` [Example I-17], the pest or weed control at 100 g/ha in the data set with Spodoptera frugiperda and in the data set with Diabrotica balteata (100 g/ha (=32 μg/cavity)) was 100% throughout. In the data set with Meloidogyne incognita, the pest or weed control at 20 ppm was determined as 90%. In the data set with Myzus persicae, this compound registered an efficacy of 90%.

`CCS(=O)(=O)c1ccc(-n2ncn(-c3cccc(I)c3)c2=O)nc1-c1nc2cc(C(F)(F)C(F)(F)F)cnc2n1C` [Example I-18]: the pest or weed control at 100 g/ha in the data set with Spodoptera frugiperda and in the data set with Diabrotica balteata (100 g/ha (=32 μg/cavity)) was 100% each time. Moreover, the efficacy in the data set with Nezara viridula [3] came to 90%.

Take `CCS(=O)(=O)c1ccc(-n2ncn(-c3cccc(Cl)c3)c2=O)nc1-c1nc2cc(C(F)(F)C(F)(F)F)cnc2n1C` [Example I-19]: the pest or weed control at 100 g/ha in the data set with Spodoptera frugiperda and with Diabrotica balteata (100 g/ha (=32 μg/cavity)) was 100% throughout.

With `CCS(=O)(=O)c1ccc(-n2ncn(-c3ccc(I)cc3)c2=O)nc1-c1nc2cc(C(F)(F)C(F)(F)F)cnc2n1C` [Example I-20], the pest or weed control at 100 g/ha with Spodoptera frugiperda stood at 100%. In addition, the efficacy in the data set with Nezara viridula [3] is reported as 100%. Besides, the pest or weed control at 125 g/ha with Diabrotica balteata is 100%. In addition, the pest or weed control at 20 ppm with Meloidogyne incognita stood at 90%.

For the compound `CCS(=O)(=O)c1ccc(-n2ncn(-c3ccc(C4(C#N)CC4)cc3)c2=O)nc1-c1nc2cc(C(F)(F)C(F)(F)F)nnc2n1C` [Example I-21], in the data set on Spodoptera frugiperda, the pest or weed control at 100 g/ha was 100%. In addition, in the data set on Diabrotica balteata, the pest or weed control at 125 g/ha worked out at 100%. For the same compound, the pest or weed control at 20 ppm in the data set on Meloidogyne incognita stood at 90%. In addition, the efficacy in the data set with Myzus persicae amounted to 100%.

With `CCS(=O)(=O)c1ccc(-n2ncn(-c3ccc(/C=N/OC)cc3)c2=O)nc1-c1nc2cc(C(F)(F)C(F)(F)F)cnc2n1C` [Example I-24], the pest or weed control at 100 g/ha with Spodoptera frugiperda and in the data set on Diabrotica balteata (100 g/ha (=32 μg/cavity)) was 100% throughout.
